Assay results taken from ChEMBL document CHEMBL1201862, “PubChem BioAssay data set” (2004).
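Dose response: 5 concentrations. Exposure: 48 h. Format: 96-well plates. Endpoint: linear interpolation; highest concentration if not reached. GI50 = concentration required for 50% inhibition of growth.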 The source made the active and inactive calls. Rule as the data show it: active = GI50 up to about 1.1 µM and inactive = higher.

What was measured:
Assay in all cases: growth of human tumour cells (NCI), 48 h
SK-MEL-2 = system: SK-MEL-2
NCI-H460 = system: NCI-H460
SF-268 = system: SF-268
SW-620 = system: SW-620
UO-31 = system: UO-31
HT-29 = system: HT-29
ACHN = system: ACHN
NCI-H522 = system: NCI-H522
SK-MEL-5 = system: SK-MEL-5
OVCAR-3 = system: OVCAR-3
K562 = system: K562
HOP-62 = system: HOP-62
HL-60 = system: HL-60
SF-295 = system: SF-295
HCC 2998 = system: HCC 2998
NCI-H23 = system: NCI-H23
IGROV-1 = system: IGROV-1
PC-3 = system: PC-3
DU-145 = system: DU-145
Hs-578T = system: Hs-578T

SMILES | GI50 (SK-MEL-2) | GI50 (NCI-H460) | GI50 (SF-268) | GI50 (SW-620) | GI50 (UO-31) | GI50 (HT-29) | GI50 (ACHN) | GI50 (NCI-H522) | GI50 (SK-MEL-5) | GI50 (OVCAR-3) | GI50 (K562) | GI50 (HOP-62) | GI50 (HL-60) | GI50 (SF-295) | GI50 (HCC 2998) | GI50 (NCI-H23) | GI50 (IGROV-1) | GI50 (PC-3) | GI50 (DU-145) | GI50 (Hs-578T)
c1ccc(OCc2nnc3n2N=C(c2ccccc2)CS3)cc1 | 75.3 µM (inactive) | > 100 µM (inactive) | > 100 µM (inactive) | > 100 µM (inactive) | 23 µM (inactive) | > 100 µM (inactive) | > 100 µM (inactive) | 55.5 µM (inactive) | > 100 µM (inactive) | > 100 µM (inactive) | > 100 µM (inactive) | > 100 µM (inactive) | > 100 µM (inactive) | > 100 µM (inactive) | > 100 µM (inactive) | > 100 µM (inactive) | > 100 µM (inactive) |  |  | 
Nc1ncnc2c(C3OC(CO)C(O)C3O)scc12 (stereo not drawn) | 0.0431 µM (active) | 0.00615 µM (active) | 1.77 µM (inactive) | 0.0192 µM (active) | 0.57 µM (active) | 0.00458 µM (active) | 0.0877 µM (active) | 0.0107 µM (active) | 0.346 µM (active) | 0.00241 µM (active) | 0.00262 µM (active) | 0.133 µM (active) | < 0.001 µM (active) | 0.129 µM (active) | 0.00504 µM (active) | 0.152 µM (active) | 0.513 µM (active) |  |  | 
CCCCc1ccc(-n2sc3ncc(-c4ccccc4)cc3c2=O)cc1 | > 100 µM (inactive) | > 100 µM (inactive) |  | > 100 µM (inactive) | > 100 µM (inactive) |  | > 100 µM (inactive) |  | > 100 µM (inactive) | > 100 µM (inactive) | > 100 µM (inactive) | > 100 µM (inactive) | > 100 µM (inactive) | > 100 µM (inactive) | > 100 µM (inactive) | > 100 µM (inactive) | > 100 µM (inactive) | > 100 µM (inactive) | > 100 µM (inactive) | 
N#C/N=C(\N)NCCO | > 100 µM (inactive) | > 100 µM (inactive) | > 100 µM (inactive) | 18.3 µM (inactive) | > 100 µM (inactive) | > 100 µM (inactive) | > 100 µM (inactive) | > 100 µM (inactive) | > 100 µM (inactive) | > 100 µM (inactive) | > 100 µM (inactive) | > 100 µM (inactive) | > 100 µM (inactive) | > 100 µM (inactive) | > 100 µM (inactive) | > 100 µM (inactive) | > 100 µM (inactive) |  |  | 
Cc1ccc2c(c1C)CC1(Cc3c(C)ccc(C)c3C1=O)C2=O (stereo not drawn) |  | > 100 µM (inactive) | > 100 µM (inactive) | > 100 µM (inactive) | > 100 µM (inactive) | > 100 µM (inactive) | > 100 µM (inactive) | > 100 µM (inactive) | > 100 µM (inactive) |  | > 100 µM (inactive) |  | > 100 µM (inactive) | > 100 µM (inactive) | > 100 µM (inactive) | > 100 µM (inactive) | > 100 µM (inactive) |  | > 100 µM (inactive) | > 100 µM (inactive)
COc1cc(/C=C2/C(=O)N/C(=N\C(C)=O)N2C)ccc1OC(C)=O | > 100 µM (inactive) | > 100 µM (inactive) |  | > 100 µM (inactive) | > 100 µM (inactive) | > 100 µM (inactive) | > 100 µM (inactive) |  | > 100 µM (inactive) | > 100 µM (inactive) |  | > 100 µM (inactive) | 53.3 µM (inactive) | > 100 µM (inactive) | > 100 µM (inactive) | > 100 µM (inactive) | > 100 µM (inactive) | > 100 µM (inactive) | > 100 µM (inactive) | 
CCOC(=O)c1sc2nc(SC)nc(Nc3ccc4c(c3)OCCO4)c2c1N | 15 µM (inactive) | 17.5 µM (inactive) | 4.69 µM (inactive) | 19.5 µM (inactive) | 15 µM (inactive) | 21 µM (inactive) | 7.28 µM (inactive) | 6.76 µM (inactive) | 7.53 µM (inactive) | 13.5 µM (inactive) | 20.6 µM (inactive) | 11.8 µM (inactive) | > 100 µM (inactive) | 42.3 µM (inactive) | 25.7 µM (inactive) | 14.2 µM (inactive) | 29.9 µM (inactive) | 13.2 µM (inactive) | 14.1 µM (inactive) | 
Cc1c(N2C(=O)/C(=C/C=C/c3ccccc3)N=C2c2ccccc2)c(=O)n(-c2ccccc2)n1C | 21.8 µM (inactive) | 29.4 µM (inactive) | 22.6 µM (inactive) | 31.6 µM (inactive) | 18.4 µM (inactive) | 20.3 µM (inactive) | 17.8 µM (inactive) | 16 µM (inactive) | 16.3 µM (inactive) | 20.4 µM (inactive) | 19 µM (inactive) | 26.5 µM (inactive) | 11.8 µM (inactive) | 19.1 µM (inactive) |  | 22 µM (inactive) | 16.3 µM (inactive) | 25.6 µM (inactive) | 40.8 µM (inactive) | 
C/N=c1\ss/c(=N\C(=S)N(C)C)n1C1CCCCC1 | > 31.6 µM (inactive) | > 31.6 µM (inactive) | > 31.6 µM (inactive) | > 31.6 µM (inactive) | > 31.6 µM (inactive) | > 31.6 µM (inactive) | > 31.6 µM (inactive) | > 31.6 µM (inactive) | > 31.6 µM (inactive) | > 31.6 µM (inactive) | > 31.6 µM (inactive) | > 100 µM (inactive) | > 100 µM (inactive) | > 31.6 µM (inactive) | > 31.6 µM (inactive) | > 31.6 µM (inactive) | > 31.6 µM (inactive) |  |  | 
Oc1cc(Cl)ncn1 | > 100 µM (inactive) | > 100 µM (inactive) | > 100 µM (inactive) | > 100 µM (inactive) | > 100 µM (inactive) | > 100 µM (inactive) | > 100 µM (inactive) | > 100 µM (inactive) | > 100 µM (inactive) | > 100 µM (inactive) | > 100 µM (inactive) | > 100 µM (inactive) | > 100 µM (inactive) | > 100 µM (inactive) | > 100 µM (inactive) | > 100 µM (inactive) | > 100 µM (inactive) |  |  | 
CC(=O)n1nc(-c2ccccc2)n(/N=C/c2ccc([N+](=O)[O-])cc2)c1=O | > 100 µM (inactive) | > 100 µM (inactive) | 43.5 µM (inactive) | > 100 µM (inactive) | > 100 µM (inactive) | > 100 µM (inactive) | > 100 µM (inactive) | 51.3 µM (inactive) | > 100 µM (inactive) | > 100 µM (inactive) | > 100 µM (inactive) |  | > 100 µM (inactive) | > 100 µM (inactive) | > 100 µM (inactive) | > 100 µM (inactive) | > 100 µM (inactive) | > 100 µM (inactive) | > 100 µM (inactive) | 
Cc1c(C(=O)CC(=O)C(=O)NC2C3CC4CC(C3)CC2C4)[n+]([O-])c2ccccc2[n+]1[O-] (stereo not drawn) | > 100 µM (inactive) | > 100 µM (inactive) | > 100 µM (inactive) | > 100 µM (inactive) | > 100 µM (inactive) | > 100 µM (inactive) | > 100 µM (inactive) | > 100 µM (inactive) | > 100 µM (inactive) | 24 µM (inactive) | > 100 µM (inactive) | > 100 µM (inactive) | > 100 µM (inactive) | > 100 µM (inactive) | > 100 µM (inactive) | > 100 µM (inactive) | > 100 µM (inactive) |  |  | 
NNC(=O)/C(NC(=O)c1ccccc1)=C(\N)c1ccc(Cl)cc1 | > 100 µM (inactive) | > 100 µM (inactive) | > 100 µM (inactive) | > 100 µM (inactive) | > 100 µM (inactive) | > 100 µM (inactive) | > 100 µM (inactive) | 61.1 µM (inactive) | > 100 µM (inactive) | > 100 µM (inactive) | 89.3 µM (inactive) | > 100 µM (inactive) | > 100 µM (inactive) | > 100 µM (inactive) | > 100 µM (inactive) | > 100 µM (inactive) | > 100 µM (inactive) |  |  | 
c1ccc(C2=NOC3(c4ccccc4)SC4CCCCC4CN23)cc1 (stereo not drawn) | 31.3 µM (inactive) | 32.6 µM (inactive) | 22.8 µM (inactive) | 30.6 µM (inactive) | 27.5 µM (inactive) | 28.2 µM (inactive) | 26.2 µM (inactive) | 9.42 µM (inactive) | 15.2 µM (inactive) | 39.4 µM (inactive) | 20.2 µM (inactive) | 38.7 µM (inactive) | 5.4 µM (inactive) | 28.1 µM (inactive) | 55.1 µM (inactive) | 29.8 µM (inactive) | 14.7 µM (inactive) |  |  | 
CC(C)(c1ccc(OC#N)cc1)c1ccc(OC#N)cc1 | > 100 µM (inactive) | > 58.7 µM (inactive) | > 66.5 µM (inactive) | > 100 µM (inactive) | > 100 µM (inactive) | > 100 µM (inactive) | > 100 µM (inactive) | 23.2 µM (inactive) | > 100 µM (inactive) | > 100 µM (inactive) | > 70 µM (inactive) | > 100 µM (inactive) | > 55 µM (inactive) | > 100 µM (inactive) | > 100 µM (inactive) | > 100 µM (inactive) | > 100 µM (inactive) |  |  | 
N#CC1(C#N)C(c2ccc(C3C(C#N)(C#N)C3(C#N)C#N)cc2)C1(C#N)C#N | > 100 µM (inactive) | > 100 µM (inactive) | > 100 µM (inactive) | > 100 µM (inactive) | > 100 µM (inactive) | > 100 µM (inactive) | > 100 µM (inactive) | 58.3 µM (inactive) | > 100 µM (inactive) | > 100 µM (inactive) | > 100 µM (inactive) | > 100 µM (inactive) | > 100 µM (inactive) | > 100 µM (inactive) | > 100 µM (inactive) | > 100 µM (inactive) | > 100 µM (inactive) |  |  | 
